The record followed here is the NIST ThermoML archive (doi:10.1021/acs.jced.7b00827).

± gives the expanded uncertainty stated by the source.

For orientation: vapor or sublimation pressure means the equilibrium pressure above the liquid or solid. A word on the refractive index: it is the speed of light in vacuum divided by its phase velocity in the sample.

For series [1] the following is noted: Liquid, Ebulliometric method (Recirculating still).
Series [2] can be described thus: refractive index (Na D-line) (dimensionless). Particulars: 101.33 kPa, Standard Abbe refractometry.

On to `CC(O)CNCC(C)O` (stereo not drawn) [N-(2-hydroxypropyl)-2-hydroxy-1-propanamine], for which the “vapor or sublimation pressure” value in series [1] (468.25 K) was 20 ± 0.2 kPa. The Normal boiling temperature in series [1] worked out at 249.1 ± 1 °C. The refractive index in series [2] (294.15 K, Liquid) was determined as 1.4625 ± 0.0008.
Turning to `CCO` [ethanol], the “vapor or sublimation pressure” value in series [1] (351.38 K) is 101.3 ± 0.5 kPa.
For `Cc1cccc(O)c1` [3-methylphenol], the “vapor or sublimation pressure” value in series [1] (422.28 K) is on record as 20 ± 0.2 kPa. For the same compound, the Normal boiling temperature in series [1] stood at 202.20 ± 1 °C. Besides, the refractive index in series [2] (293.15 K, Liquid) came out at 1.5396 ± 0.0008; in series [2] (298.15 K, Liquid), 1.5374 ± 0.0008.
As for `Cc1cccc(C)c1O` [2,6-dimethylphenol], the “vapor or sublimation pressure” value in series [1] (418.21 K) is reported as 20 ± 0.2 kPa. Further, in series [1], the Normal boiling temperature came to 201.20 ± 1 °C. Besides, the refractive index in series [2] (293.15 K, Metastable liquid) is reported as 1.5075 ± 0.0008; in series [2] (298.15 K, Metastable liquid), 1.5053 ± 0.0008.
On to `O` [water], for which the “vapor or sublimation pressure” value in series [1] (373.05 K) is 101.3 ± 0.5 kPa.
